Reference: paper PMC9127807, “Echinocandins Localized to the Target-Harboring Cell Surface Are Not Degraded but Those Entering the Vacuole Are” (ACS Chemical Biology, 2022)
Values after ≈ are worked out from the molar mass of the structure shown. Values joined by “and” are separate entries in the source; they are usually repeats but may differ in a detail not shown here. Equal values may be shown once. Read-outs that look alike come from different tables or passages of the source. Starred links: 1 amine or outer side, 2 acyl side, 3 side chain; linkers in the order of their positions; H or OH if unused. Positions of bridges follow the written chain, without caps; N, C: chain ends. Non-standard residues stand in square brackets, D forms with d. Residues, ends and D or L forms follow the SMILES beside them. *: point of attachment. pTerphenylCO(4''-OnC5H11) = CCCCCOc1ccc(-c2ccc(-c3ccc(C(=O)*)cc3)cc2)cc1; Orn(4R-OH,5R-OH) = O=C([C@H](C[C@@H](O)[C@@H](O)N[*:3])N[*:1])[*:2]; hTyr(3S-OH,4S-OH) = N[C@H](C(=O)O)[C@H](O)[C@@H](O)c1ccc(O)cc1; Pro(3S-OH,4S-Me) = C[C@H]1CN[C@H](C(=O)O)[C@H]1O; Hyp = O=C(O)[C@@H]1C[C@@H](O)CN1

Tests used:
[1] = system: C. albicans ATCC 24433; details: strain C, echinocandin-susceptible; YPAD broth, 24 h, 30 °C, OD600 reduced by ≥75%
Method: (§1) Candida strains were streaked from glycerol stock onto YPAD agar plates and grown for 24 h at 30 °C. Colonies were suspended in 1 mL of PBS and diluted to an optical density of 2 × 10^–4 at 600 nm (OD600) in flat-bottom 96-well microplates (Corning) with YPAD broth containing dilutions of each tested compound at concentrations ranging from 64 to 0.008 μg/mL in twofold dilutions. Control wells with yeast cells but no drug and blank wells that contained only YPAD were prepared. MIC values (Table S2) were determined after 24 h at 30 °C by measuring the OD600 using a plate reader (Infinite M200 PRO, Tecan). MIC values were defined as the point at which the OD600 was reduced by ≥75% compared to the no-drug wells. Each concentration was tested in triplicate, and the results were confirmed by two independent sets of experiments.

[2] = system: C. albicans ATCC 90028; details: strain E, echinocandin-susceptible; YPAD broth, 24 h, 30 °C, OD600 reduced by ≥75%
Method: as §1

[3] = system: C. glabrata ATCC 90030; details: strain K, echinocandin-susceptible; YPAD broth, 24 h, 30 °C, OD600 reduced by ≥75%
Method: as §1

[4] = system: C. albicans DPL1016 (DP-A15-10); details: strain F, echinocandin resistant FKS mutation; YPAD broth, 24 h, 30 °C, OD600 reduced by ≥75%
Method: as §1

[5] = system: C. albicans T-2068 (DP-C42); details: strain G, echinocandin resistant FKS mutation; YPAD broth, 24 h, 30 °C, OD600 reduced by ≥75%
Method: as §1

[6] = system: C. albicans ATCC 10231; details: strain D, echinocandin-susceptible; YPAD broth, 24 h, 30 °C, OD600 reduced by ≥75%
Method: as §1

[7] = system: C. glabrata ATCC 66032; details: strain J, echinocandin-susceptible; YPAD broth, 24 h, 30 °C, OD600 reduced by ≥75%
Method: as §1

[8] = system: C. glabrata TGL00275; details: strain M, echinocandin resistant FKS mutation; YPAD broth, 24 h, 30 °C, OD600 reduced by ≥75%
Method: as §1

[9] = system: C. glabrata ATCC 2001; details: strain I, echinocandin-susceptible; YPAD broth, 24 h, 30 °C, OD600 reduced by ≥75%
Method: as §1

[10] = system: C. glabrata TGL00277; details: strain N, echinocandin resistant FKS mutation; YPAD broth, 24 h, 30 °C, OD600 reduced by ≥75%
Method: as §1

[11] = system: C. albicans SC5314; details: strain A, echinocandin-susceptible; YPAD broth, 24 h, 30 °C, OD600 reduced by ≥75%; triplicate, two independent experiments
Method: as §1

[12] = system: C. glabrata T-192 (1775); details: strain L, echinocandin-susceptible; YPAD broth, 24 h, 30 °C, OD600 reduced by ≥75%
Method: as §1

[13] = system: C. glabrata EF1620; details: strain H, echinocandin-susceptible; YPAD broth, 24 h, 30 °C, OD600 reduced by ≥75%
Method: as §1

[14] = system: C. albicans SN152; test: MIC broth double-dilution assay; type: cell-based, Candida albicans; details: strain B, echinocandin-susceptible; YPAD broth, 24 h, 30 °C, OD600 reduced by ≥75%
Method: as §1, with “Colonies” for “Candida strains were streaked from glycerol stock onto YPAD agar plates and grown for 24 h at 30 °C. Colonies”

[15] = system: C. albicans SC5314 cell lysate; details: incubated with lysate of C. albicans SC5314 in buffer for 24 h; RP-HPLC
Method: C. albicans SC5314 cells were streaked from glycerol stocks onto YPAD agar plates and grown for 24 h at 30 °C. Colonies were grown in tubes in 3 mL of YPAD broth for 24 h at 30 °C with shaking. Cultures were diluted 1:50 and incubated in 5 mL of YPAD broth for 3 h at 30 °C with shaking until log-phase growth was observed. Cultures were then centrifuged (4000 rpm, 3 min), washed with PBS buffer, and resuspended in 1 mL of PBS buffer or YPAD. Cells were incubated with TMR-based probes (1 or 3) at a final concentration of 10 μM at 30 °C with shaking in the dark for 24 h. After washing three times with PBS, cells were resuspended in 75 μL of TNE buffer (10 mM Tris, 100 mM NaCl, and 1 mM ethylenediaminetetraacetic acid, pH 8.0) in a 1.5 mL Eppendorf tube, and 0.5 mm diameter beads were added to the yeast solution. The mixture was agitated on a vortex at maximum speed for 5 min. […] The samples were analyzed using analytical reverse-phase HPLC at a 550 nm wavelength. HPLC conditions: mobile phase: acetonitrile in H2O (containing 0.1% trifluoroacetic acid (v/v)), gradient from 10 to 90%; flow rate: 1 mL/min; absorbance wavelength: 550 nm. […] The percentages of intact echinocandin were determined using the area calculation function available in the Hitachi Primaide Software and are presented as means (two replicates) ± standard deviation (SD).

[16] = system: C. albicans SC5314 cells; details: for percentage degraded: 24 h, 10 μM, 30 °C, RP-HPLC of lysates
Method: C. albicans SC5314 cells were streaked from glycerol stocks onto YPAD agar plates and grown for 24 h at 30 °C. Colonies were grown in tubes in 3 mL of YPAD broth for 24 h at 30 °C with shaking. Cultures were diluted 1:50 and incubated in 5 mL of YPAD broth for 3 h at 30 °C with shaking until log-phase growth was observed. Cultures were then centrifuged (4000 rpm, 3 min), washed with PBS buffer, and resuspended in 1 mL of PBS buffer or YPAD. Cells were incubated with TMR-based probes (1 or 3) at a final concentration of 10 μM at 30 °C with shaking in the dark for 24 h. After washing three times with PBS, cells were resuspended in 75 μL of TNE buffer (10 mM Tris, 100 mM NaCl, and 1 mM ethylenediaminetetraacetic acid, pH 8.0) in a 1.5 mL Eppendorf tube, and 0.5 mm diameter beads were added to the yeast solution. The mixture was agitated on a vortex at maximum speed for 5 min. Next, 200 μL of 2% Triton X-100 in TNE buffer (v/v) was added to the agitated solution, and then the mixture was sonicated for 15 min. To clarify the yeast lysate, the mixture was centrifuged twice (16 000g, 20 min), and the supernatant was removed and filtered using a 0.22 μm syringe filter. The samples were analyzed using analytical reverse-phase HPLC at a 550 nm wavelength. HPLC conditions: mobile phase: acetonitrile in H2O (containing 0.1% trifluoroacetic acid (v/v)), gradient from 10 to 90%; flow rate: 1 mL/min; absorbance wavelength: 550 nm. Each sample was tested in two independent sets of experiments. The percentages of intact echinocandin were determined using the area calculation function available in the Hitachi Primaide Software and are presented as means (two replicates) ± standard deviation (SD).

[17] = incubation in human plasma for 44 h at 37 °C; cited from earlier work
Text: Intending to develop echinocandins with improved chemical stability under physiological conditions, Cidara Therapeutics developed rezafungin (RZF), a novel ANF derivative with distinctive pharmacokinetic and pharmacodynamic profiles, which entered phase III trials in October 2018 (Figure 1).[18]−[21] […] Instead of the daily intravenous administration regime used for the other three echinocandins, RZF can be administered intravenous ...

| SMILES | MIC [1] [µg/mL] | MIC [2] [µg/mL] | MIC [3] [µg/mL] | MIC [4] [µg/mL] | MIC [5] [µg/mL] | MIC [6] [µg/mL] | MIC [7] [µg/mL] | MIC [8] [µg/mL] | MIC [9] [µg/mL] | MIC [10] [µg/mL] | MIC [11] [µg/mL] | MIC [12] [µg/mL] | MIC [13] [µg/mL] | MIC [14] [µg/mL] | percentage intact [15] | percentage degraded ([16]; cells in nutrient-free PBS buffer) | percentage degraded ([16]; cells in nutrient-rich YPAD medium) | percentage intact ([16]; control: 5 min incubation with the cells in PBS, RP-HPLC) [%] | percent of intact drug [17] [%] |
| --- | --- | --- | --- | --- | --- | --- | --- | --- | --- | --- | --- | --- | --- | --- | --- | --- | --- | --- | --- |
| CC[C@H](C)C[C@H](C)CCCCCCCCC(=O)N[C@H]1C[C@@H](O)[C@@H](NCCN)NC(=O)[C@@H]2[C@@H](O)CCN2C(=O)[C@H]([C@H](O)CCN)NC(=O)[C@H]([C@H](O)[C@@H](O)c2ccc(O)cc2)NC(=O)[C@@H]2C[C@@H](O)CN2C(=O)[C@H]([C@@H](C)O)NC1=O [CSF, caspofungin, reference compound] | 0.031 (≈ 0.0284 µM) | 0.063 (≈ 0.0576 µM) | 0.125 (≈ 0.114 µM) | 32 (≈ 29.3 µM) | 16 (≈ 14.6 µM) | 0.063 (≈ 0.0576 µM) | 0.063 (≈ 0.0576 µM) | 16 (≈ 14.6 µM) | 0.063 (≈ 0.0576 µM) | > 64 | 0.031 (≈ 0.0284 µM) | 0.016 (≈ 0.0146 µM) | 0.031 (≈ 0.0284 µM) | 0.031 (≈ 0.0284 µM) |  |  |  |  |  |
| CC[C@H](C)C[C@H](C)CCCCCCCCC(=O)N[C@H]1C[C@@H](O)[C@@H](NCCN)NC(=O)[C@@H]2[C@@H](O)CCN2C(=O)[C@H]([C@H](O)CCN)NC(=O)[C@H]([C@H](O)[C@@H](O)c2ccc(OCc3cn(CCCNC(=O)c4ccc(-c5c6ccc(=[N+](C)C)cc-6oc6cc(N(C)C)ccc56)c(C(=O)[O-])c4)nn3)cc2)NC(=O)[C@@H]2C[C@@H](O)CN2C(=O)[C@H]([C@@H](C)O)NC1=O [Probe 1] |  |  |  |  |  |  |  |  |  |  |  |  |  |  | 78% and ~80% | approximately 70% | approximately 40% | ~80 |  |
| CCCCCOc1ccc(-c2ccc(-c3ccc(C(=O)N[C@H]4C[C@@H](O)[C@@H](O)NC(=O)[C@@H]5[C@@H](O)[C@@H](C)CN5C(=O)[C@H]([C@@H](C)O)NC(=O)[C@H]([C@H](O)[C@@H](O)c5ccc(O)cc5)NC(=O)[C@@H]5C[C@@H](O)CN5C(=O)[C@H]([C@@H](C)O)NC4=O)cc3)cc2)cc1 [ANF, anidulafungin, reference compound] ({pTerphenylCO(4''-OnC5H11)}-[Orn(4R-OH,5R-OH)]T[Hyp][hTyr(3S-OH,4S-OH)]T[Pro(3S-OH,4S-Me)]; lactam 1-C) | 0.008 (≈ 0.00702 µM) | 0.016 (≈ 0.014 µM) | 0.016 (≈ 0.014 µM) | 4 (≈ 3.51 µM) | 4 (≈ 3.51 µM) | 0.016 (≈ 0.014 µM) | 0.016 (≈ 0.014 µM) | 4 (≈ 3.51 µM) | 0.008 (≈ 0.00702 µM) | > 64 | 0.008 (≈ 0.00702 µM) | 0.008 (≈ 0.00702 µM) | 0.008 (≈ 0.00702 µM) | 0.008 (≈ 0.00702 µM) |  |  |  |  | 7 |
| CCCCCOc1ccc(-c2ccc(-c3ccc(C(=O)N[C@H]4C[C@@H](O)[C@@H](OCCc5cn(CCCNc6ccc([N+](=O)[O-])c7nonc67)nn5)NC(=O)[C@@H]5[C@@H](O)[C@@H](C)CN5C(=O)[C@H]([C@@H](C)O)NC(=O)[C@H]([C@H](O)[C@@H](O)c5ccc(O)cc5)NC(=O)[C@@H]5C[C@@H](O)CN5C(=O)[C@H]([C@@H](C)O)NC4=O)cc3)cc2)cc1 [Probe 4] | 0.25 (≈ 0.172 µM) | 0.5 (≈ 0.344 µM) | 0.5 (≈ 0.344 µM) | > 64 | > 64 | 0.25 (≈ 0.172 µM) | 0.5 (≈ 0.344 µM) | > 64 | 0.5 (≈ 0.344 µM) | > 64 | 0.25 (≈ 0.172 µM) | 0.25 (≈ 0.172 µM) | 0.5 (≈ 0.344 µM) | 0.25 (≈ 0.172 µM) |  |  |  |  |  |
